Peptide text beside a SMILES is read from it.
What was measured:
CHO line = experiment: Effect of Gly-Lys-Gly on growth and productivity of a CHO line in chemically defined CHO medium; assay type: cell-based, Chinese Hamster; conditions: CHO medium supplemented at the same concentrations as in the SP2/0 test; results not shown
Source text: In a previous experiment, a proprietary chemically defined Chinese Hamster Ovary (CHO) medium was supplemented with both the Centocor and Bachem-made peptides at the same concentrations above.

[1] = test system: transfectoma cell line which is an SP2/0 derived line engineered to produce an anti-cytokine monoclonal antibody (mAb); experiment: Effect of Gly-Lys-Gly on growth and productivity of a transfectoma cell line in MET1.5 shaker flask culture; assay type: cell-based; conditions: for viable cell density: unsupplemented control 2.0×10^6
Description: Two preparations of the tri-peptide, Gly-L-Lys-Gly, were compared for their effect on growth and productivity of a transfectoma cell line which is an SP2/0 derived line engineered to produce an anti-cytokine monoclonal antibody (mAb). The final lot of GKG prepared in Example V was compared to commercial prepared GKG purchased from Bachem (King of Prussia, Pa.).
Cells were cultured in a proprietary defined medium, MET1.5, supplemented with 7.0 mM glutamine, 10 g/L MHX, and 2.0 g/L sodium bicarbonate. The Centocor-made GKG peptide in quantities of 0.35 g/L, 0.70 g/L, and 1.40 g/L were added to 250 mL of MET 1.5 media. The GKG from Bachem was added to 250 mL of MET 1.5 media at concentrations of 0.38 g/L, 0.76g/L, and 1.5 g/L. The cells were cultured in 125 mL shaker flasks and were rotating at 125 RPM. The culture was also incubated at 37° C. in a humidified atmosphere with 5% CO2 and 95% air. The culture volume was 40 mL. Two control flasks and two flasks per peptide concentration were sampled at days zero, one, two, three, four, five, and six for viable cell density and antibody determination.
The cultures were inoculated at a density of 2×10^5 cells/mL and were passaged three times (split every three days). On the third passage they were incubated until the decline phase.
Viable cells and dead cells were calculated by trypan exclusion with the Cedex cell counter. The mAb concentrations were determined by immunoturbidity via the IMMAGE 800 nephelometer (Beckman, Coulter, Brea, Calif.). The effects of the Gly-Lys-Gly peptide on antibody secretion by a production cell line was gauged by calculating integral viable density (IVCC), and titer. IVCC was calculated by integrating the areas under the growth curves. Specific antibody productivity was calculated as the antibody production per day (titer) divided by IVCC.

Molecule: NCCCC[C@H](NC(=O)CN)C(=O)NCC(=O)O [Centocor-made peptide, Glycyl-L-Lysyl-Glycine] (H-Gly-Lys-Gly-OH)
- effect on growth and productivity (CHO line): minimal to no effect
- viable cell density ([1]; 0.35 g/L peptide in MET1.5, mean of two samples): 2.5×10^6 viable cells/mL
- enhancement of the product yield or viable cell density ([1]; 0.7 g/L peptide in MET1.5): No enhancement
- increase in titer (concentration of mAb) ([1]; 1.4 g/L peptide in MET1.5): 21%
- viable cell density and percent viability increases ([1]; 1.4 g/L peptide in MET1.5): could not be observed

Molecule: Gly-L-Lys-Gly [Bachem-made-peptide]
- effect on growth and productivity (CHO line): minimal to no effect
- viable cell density ([1]; 0.38 g/L peptide in MET1.5, mean of two samples): 2.6×10^6 viable cells/mL
- titer ([1]; 0.76 g/L peptide in MET1.5, rose from 117 mg/L without supplement, mean of two samples): 137 mg/L
- increase in titer (concentration of mAb) ([1]; 1.5 g/L peptide in MET1.5): 34%
- viable cell density and percent viability increases ([1]; 1.5 g/L peptide in MET1.5): could not be observed
